Data from patent US7772188B2, “Methods and compositions for the treatment of gastrointestinal disorders” (priority 2003, dated 2010).
No end group written: not given here.

Key:
gastrointestinal transit = experiment: Murine gastrointestinal transit (GIT) assay, charcoal front; assay type: in vivo, mice; settings: for gastrointestinal transit rate: SEQ ID NO:4 and Zelnorm 0.1 mg/kg, FIG. 3a/3b; for intestinal transit rate versus dosage: recombinantly synthesized peptides, FIG. 4a
Protocol: In order to determine whether the peptides increase the rate of gastrointestinal transit, the peptides and controls were tested using a murine gastrointestinal transit (GIT) assay (Moon et al. Infection and Immunity 25:127, 1979). In this assay, charcoal, which can be readily visualized in the gastrointestinal tract is administered to mice after the administration of a test compound. The distance traveled by the charcoal is measured and expressed as a percentage of the total length of the […].
Mice were fasted with free access to water for 12 to 16 hours before the treatment with peptide or control buffer. The peptides were orally administered at 1 μg/kg-1 mg/kg of peptide in buffer (20 mM Tris pH 7.5) 7 minutes before being given an oral dose of 5% Activated Carbon (Aldrich 242276-250G). Control mice were administered buffer only before being given a dose of Activated Carbon. After 15 minutes, the mice were sacrificed and their intestines from the stomach to the cecum were dissected. The total length of the intestine as well as the distance traveled from the stomach to the charcoal front was measured for each animal and the results are expressed as the percent of the total length of the intestine traveled by the charcoal front. All results are reported as the average of 10 mice±standard deviation. A comparison of the distance traveled by the charcoal between the mice treated with peptide versus the mice treated with vehicle alone was performed using a Student's t test and a statistically significant difference was considered for P<0.05. P-values are calculated using a two-sided T-Test assuming unequal variances.
The identical experiment was performed to determine if SEQ ID NO:3 is effective in a chronic dosing treatment regimen. Briefly, 8 week old CD1 female mice are dosed orally once a day for 5 days with either SEQ ID NO:3 (0.06 mg/kg or 0.25 mg/kg in 20 mM Tris pH 7.5) or vehicle alone (20 mM Tris pH 7.5). On the 5th day, a GIT assay is performed identical to that above except 200 μl of a 10% charcoal solution is administered. […] The results are shown side by side with acute dosing (1 day).

intestinal secretion = experiment: Suckling mouse model of intestinal secretion (SuMi assay); assay type: in vivo; settings: suckling mice
Protocol: In this model a test compound is administered to suckling mice that are between 7 and 9 days old. After the mice are sacrificed, the gastrointestinal tract from the stomach to the cecum is dissected (“guts”). The remains (“carcass”) as well as the guts are weighed and the ratio of guts to carcass weight is calculated. If the ratio is above 0.09, one can conclude that the test compound increases intestinal secretion. […] The effect of Zelnorm® was also studied.

[1] = target: T1, GC-C receptors found in rat intestinal mucosa (Rattus norvegicus, UniProt P23897); parameters: Intestinal mucosa was extruded from the intestine by gentle pressure; from tissue; host or cells: rat small-intestinal epithelial cells (mucosa), used as a cell suspension; settings: same assay, observed by Giannella et al.; cited from earlier work
T1 sequence (P23897 23-1072): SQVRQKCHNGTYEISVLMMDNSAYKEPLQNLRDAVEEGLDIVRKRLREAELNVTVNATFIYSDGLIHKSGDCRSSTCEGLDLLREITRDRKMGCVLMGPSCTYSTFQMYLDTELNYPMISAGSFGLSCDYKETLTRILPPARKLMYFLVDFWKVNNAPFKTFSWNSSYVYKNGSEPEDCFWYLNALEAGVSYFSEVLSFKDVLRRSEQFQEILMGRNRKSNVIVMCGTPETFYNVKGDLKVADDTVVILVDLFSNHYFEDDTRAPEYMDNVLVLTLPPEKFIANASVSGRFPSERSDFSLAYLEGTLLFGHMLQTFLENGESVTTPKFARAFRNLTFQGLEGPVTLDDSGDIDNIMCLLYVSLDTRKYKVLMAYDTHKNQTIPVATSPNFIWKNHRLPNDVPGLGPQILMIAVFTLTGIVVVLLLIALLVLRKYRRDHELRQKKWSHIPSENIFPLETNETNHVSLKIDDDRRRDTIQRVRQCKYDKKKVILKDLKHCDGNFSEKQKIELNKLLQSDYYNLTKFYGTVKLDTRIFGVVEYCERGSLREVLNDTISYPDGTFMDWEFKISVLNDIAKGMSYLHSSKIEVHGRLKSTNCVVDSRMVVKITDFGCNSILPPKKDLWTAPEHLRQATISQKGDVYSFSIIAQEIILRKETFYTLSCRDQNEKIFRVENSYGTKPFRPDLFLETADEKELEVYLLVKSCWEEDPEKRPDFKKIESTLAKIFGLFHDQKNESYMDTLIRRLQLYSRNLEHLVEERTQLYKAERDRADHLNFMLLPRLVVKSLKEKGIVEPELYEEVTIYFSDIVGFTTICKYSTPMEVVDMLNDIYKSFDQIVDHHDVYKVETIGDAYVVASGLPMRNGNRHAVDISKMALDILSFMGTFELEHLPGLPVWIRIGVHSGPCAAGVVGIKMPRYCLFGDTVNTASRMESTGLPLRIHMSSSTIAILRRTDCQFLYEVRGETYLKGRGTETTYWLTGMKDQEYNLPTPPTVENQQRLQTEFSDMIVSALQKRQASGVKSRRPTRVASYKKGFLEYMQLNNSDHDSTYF

intestinal GC-C receptor = target: T2, intestinal GC-C receptor (Homo sapiens, UniProt P25092); experiment: Intestinal GC-C receptor activity assay (cyclic GMP by EIA in T84 cells); assay type: cell-based; settings: chemically synthesized peptides, FIG. 2
T2 construct: host or cells: T84 human colon carcinoma cells
Protocol: The ability of SEQ ID NO:5, SEQ ID NO:4, and SEQ ID NO:3 to activate the intestinal GC-C receptor was assessed in an assay employing the T84 human colon carcinoma cell line (American Type Culture Collection (Bethesda, Md.)). For the assays cells were grown to confluency in 24-well culture plates with a 1:1 mixture of Ham's F12 medium and Dulbecco's modified Eagle's medium (DMEM), supplemented with 5% fetal calf serum and were used at between passages 54 and 60.
Briefly, monolayers of T84 cells in 24-well plates were washed twice with 1 ml/well DMEM, then incubated at 37° C. for 10 min with 0.45 ml DMEM containing 1 mM isobutylmethylxanthine (IBMX), a cyclic nucleotide phosphodiesterase inhibitor. Test peptides (50 μl) were then added and incubated for 30 minutes at 37° C. The media was aspirated and the reaction was then terminated by the addition of ice cold 0.5 ml of 0.1N HCl. The samples were held on ice for 20 minutes and then evaporated to dryness using a heat gun or vacuum centrifugation. The dried samples were resuspended in 0.5 ml of phosphate buffer provided in the Cayman Chemical Cyclic GMP EIA kit (Cayman Chemical, Ann Arbor, Mich.). Cyclic GMP was measured by EIA according to procedures outlined in the Cayman Chemical Cyclic GMP EIA kit.

PBQ-induced writhing = experiment: Phenylbenzoquinone (PBQ)-induced writhing model
[2] = recombinant peptides, dose response, FIG. 6a

T2 sequence (P25092 24-1073): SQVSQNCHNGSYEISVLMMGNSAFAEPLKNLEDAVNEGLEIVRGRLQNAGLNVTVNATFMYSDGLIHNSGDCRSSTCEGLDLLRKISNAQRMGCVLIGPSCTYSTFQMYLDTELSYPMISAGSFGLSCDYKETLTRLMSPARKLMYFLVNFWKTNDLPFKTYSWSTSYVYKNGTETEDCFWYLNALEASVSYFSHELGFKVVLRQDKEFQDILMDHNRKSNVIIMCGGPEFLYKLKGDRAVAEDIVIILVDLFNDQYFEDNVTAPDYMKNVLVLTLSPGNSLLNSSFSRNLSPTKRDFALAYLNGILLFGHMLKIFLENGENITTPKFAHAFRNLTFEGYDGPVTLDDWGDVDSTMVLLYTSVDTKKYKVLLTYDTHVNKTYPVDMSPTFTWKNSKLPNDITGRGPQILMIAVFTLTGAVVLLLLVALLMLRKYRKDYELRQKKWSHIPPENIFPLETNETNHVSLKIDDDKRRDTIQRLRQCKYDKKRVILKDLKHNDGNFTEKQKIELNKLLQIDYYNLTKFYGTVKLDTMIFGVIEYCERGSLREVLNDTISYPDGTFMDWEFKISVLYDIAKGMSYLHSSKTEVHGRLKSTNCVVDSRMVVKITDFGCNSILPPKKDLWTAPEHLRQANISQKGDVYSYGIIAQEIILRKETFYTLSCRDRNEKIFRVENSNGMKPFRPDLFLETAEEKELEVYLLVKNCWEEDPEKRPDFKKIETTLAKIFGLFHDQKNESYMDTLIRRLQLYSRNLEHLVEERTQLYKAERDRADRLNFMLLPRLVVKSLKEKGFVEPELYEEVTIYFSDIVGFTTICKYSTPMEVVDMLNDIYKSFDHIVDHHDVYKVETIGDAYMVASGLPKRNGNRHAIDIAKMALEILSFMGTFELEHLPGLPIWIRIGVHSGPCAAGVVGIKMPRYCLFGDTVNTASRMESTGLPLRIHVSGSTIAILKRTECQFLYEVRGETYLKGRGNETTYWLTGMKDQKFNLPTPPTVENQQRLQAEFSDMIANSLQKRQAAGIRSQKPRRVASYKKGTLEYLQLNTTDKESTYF

Compound	gastrointestinal transit rate (gastrointestinal transit; acute, oral, mice)	effect in mouse gastrointestinal motility assay upon chronic dosing (gastrointestinal transit; oral once a day for 5 days, CD1 female mice, FIG. 4c)	intestinal secretion (guts to carcass weight ratio) (intestinal secretion; 0.2 mg/kg, FIG. 5)	intestinal transit rate versus Tris buffer or equivalent dose of Zelnorm (gastrointestinal transit; acute, oral, mice, chemically synthesized peptides, FIG. 4b)	intestinal transit rate versus dosage (gastrointestinal transit; acute, oral, mice)	intestinal secretion (guts to carcass weight ratio) (intestinal secretion; dose response, FIG. 5a/5b)	intestinal secretion (guts to carcass weight ratio) (intestinal secretion; [2])	Kd [1] [nM]	activity in GC-C receptor activity assay (intestinal GC-C receptor)	antinociceptive effect relative to indomethacin (PBQ-induced writhing; mouse PBQ writhing, visceral pain model)	writhings compared to the vehicle control (PBQ-induced writhing; mouse, oral, 1 mg/kg dose, FIG. 8a)
[H]/N=C(/NCCCCC)N/N=C/c1c[nH]c2ccc(OC)cc12 [Zelnorm®, tegaserod]	increase gastrointestinal transit rate	effective	does not increase intestinal secretion								
NSSNYCCELCCNPACTGCY [SEQ ID NO:4, Asn Ser Ser Asn Tyr Cys Cys Glu Leu Cys Cys Asn Pro Ala Cys Thr Gly Cys Tyr]	increase gastrointestinal transit rate			increase intestinal transit rates more than either Tris buffer alone or an equivalent dose of Zelnorm®	intestinal transit rate increases with an increasing dosage	increase intestinal secretion	increase intestinal secretion	~13	activity comparable to SEQ ID NO:4		
NSSNYCCEYCCNPACTGCY (cysteine pairing not given here) [SEQ ID NO:5]					intestinal transit rate increases with an increasing dosage		increase intestinal secretion			antinociceptive effects in this visceral pain model comparable to the intermediate doses of indomethacin	Significant reductions in writhings
